Consider one compound from article PMC8752738, “A propolis-derived small molecule ameliorates metabolic syndrome in obese mice by targeting the CREB/CRTC2 transcriptional complex” (Nature Communications, 2022).

Structures are written as SMILES.

For this test, the system named is mTORC1. The experiment in a line: Immunoblotting of mTORC1 signaling, mature SREBP1 and FASN in primary hepatocytes. As to conditions: glucagon-insulin-treated primary hepatocytes. In kind it is cell-based, mouse. How it is done:
Fi g u re B . Immunoblotting analysis of phosphorated or total protein amounts of S6K , mature SREBP -1and FASN in primary hepatocyt es . The cells wer epretreated with APC (10 μ M) for 2 hours , exposed to glucagon (100 nM) for 4 hours, and t hen followed by12- hour insulin (100 nM) incubationbefore collection.
(1 picture or pasted object on this page, not shown here) […]
I have a few more points that have to be addressed in the revised work.
1. In Figure B, it appeared that APC-induced p-S6K level was rather inhibited by glu/ins treatment (lane 3 vs lane 4). Is it significant?
Response: We agree wit h Reviewer1’ s comments that the western blotting band of p-S6K level of lane 4 seems weaker than that of lane3 in Figure B. However, we performed the densitometry analysis of all the results from three independent […]
independent of its effect on reducing SREBP-1c expression and the subsequent repression of lipogenesis. The authors should simply run western blot for mTORC1 signaling by utilizing the existing samples.
Response: We are grat eful for Reviewer1’s com ments. […]
to glucagon (100 nM) for 4 hours, and then followed by 12- hour insulin (100 nM) incubation before collection. […] Data are represented as mean ± SEM. *, p < 0.05; **, p < 0.01; p values were determined by two- way ANOVA followed Bonferroni’s multiple comparisons test. […]
(In western blotting, separated proteins are transferred to a membrane and probed.)

Turning to `CC(C)=CCc1cc(C=CC(=O)O)cc(CC=C(C)C)c1O` [APC, 3,5-diprenyl-4-hydroxycinnamic acid], the mTORC1 activity result is “increased”; the “protein amounts of mature SREBP1 and fat acid synthase” value is recorded as “decreased”.
